Assay results: patent US20060258711A1, “Treatment of drug abuse” (Wyeth, priority 2005, published 2006)

Test system: rats
Assay: Open field test of locomotor activity with or without cocaine
Format: in vivo, rat
Details: dosed 1 hour before 5-minute open field test
Method: Rats were dosed either with vehicle or with cocaine in the presence or absence of Compound 1 (0.1 mg/kg. sc). One hour after dosing (i.p. & s.c.), rats were put in a open field, where distance moved and zones crossed were recorded by the ethovision program.
Animals were brought to the lab room 1 hour before the start of the experiment. Rats were injected with compound(s) 1 hour before being placed in the open field. Rats were then placed in open field, and the test lasted for five minutes.

NCC1Cc2cc(F)cc(-c3c(Cl)cccc3Cl)c2O1 (centres unmarked) [Compound 1, (7-(2,6-dichlorophenyl)-5-fluoro-2,3-dihydrobenzofuran-2-yl)methanamine]
reversal of the hyperactivity produced by cocaine (0.1 mg/kg sc + cocaine 3 mg/kg ip, FIG. 1): completely reversed | effect on locomotor activity alone (0.1 mg/kg sc + vehicle): no effect
